5 molecules from paper PMC7422938 (Chemical research in toxicology, 2020) can be followed below.

“Also recorded” adds a separate entry of the source.

For orientation: IC50 means the point on the concentration scale where inhibition reaches its midpoint.

This series deals with T1, microsomal recombinant human cytochrome P450 2A6 (CYP2A6) (Homo sapiens, UniProt P11509).
T1 sequence (P11509 1-494): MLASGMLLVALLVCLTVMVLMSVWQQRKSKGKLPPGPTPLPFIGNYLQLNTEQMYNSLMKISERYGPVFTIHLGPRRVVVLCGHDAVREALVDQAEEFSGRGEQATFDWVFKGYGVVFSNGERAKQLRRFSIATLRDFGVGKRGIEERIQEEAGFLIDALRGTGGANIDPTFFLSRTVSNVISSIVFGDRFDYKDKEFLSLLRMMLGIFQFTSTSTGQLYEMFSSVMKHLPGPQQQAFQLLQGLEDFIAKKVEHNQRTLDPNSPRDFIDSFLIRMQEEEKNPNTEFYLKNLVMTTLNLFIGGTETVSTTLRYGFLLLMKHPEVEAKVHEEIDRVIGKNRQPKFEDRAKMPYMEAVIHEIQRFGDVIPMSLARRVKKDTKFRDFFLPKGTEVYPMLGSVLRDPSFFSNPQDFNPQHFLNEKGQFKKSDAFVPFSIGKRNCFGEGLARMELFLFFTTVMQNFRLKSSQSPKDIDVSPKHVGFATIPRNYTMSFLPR
The series can be described thus: Vivid fluorescence-based CYP2A6 inhibition screening. The class given is biochemical.

Consider `O=Cc1ccccc1` [Benzaldehyde, benzaldehyde], for which the IC50 worked out at 3 µM.

Take `O=C/C=C/c1ccccc1` [Cinnamaldehyde, trans-cinnamaldehyde]: the IC50 worked out at 1.1 µM.

In the case of `CCOc1cc(C=O)ccc1O` [Ethyl vanillin, ethyl-vanillin], the IC50 came out at 69.4 µM. The CYP2A6 inhibition entry (flavoring agent at 500 μM) was “near-maximal inhibition”.

Take `CC(=O)OCCC(C)C` [Isoamyl Acetate, isoamyl acetate]: the IC50 is more than 500 µM. Besides, the CYP2A6 inhibition result (flavoring agent up to 500 μM (highest concentration)) is “negligible inhibition; also recorded: no inhibition”.

Take `COc1cc(C=O)ccc1O` [Vanillin, vanillin]: the IC50 stood at 70 µM. The CYP2A6 inhibition result (flavoring agent at 500 μM) was “near-maximal inhibition”.
